Patent publication US5620890A, “Monoclonal antibodies to hygromycin B and the method of making the same” (The United States of America as represented by the …, priority 1995, dated 1997)

Key:
Assay type in all cases: binding, mouse
[1] = tested on: monoclonal antibody HB-13 (IgG1, kappa; hybridoma ATCC HB-12167); assay: Competitive indirect ELISA (CI-ELISA), solid-phase antigen HB-SMPB-S-BSA; conditions: for cross-reactivity with the HB-13 antibody: competitor concentration of 50 ppm; for average IC50: free competitor in CI-ELISA
Procedure: The supernatant culture fluid from the cloned hybridomas may also be screened to select for those producing antibodies having a high affinity for hygromycin B. Affinity may be measured using a variety of well known techniques, such as ELISA, RIA or equilibrium dialysis using labelled hygromycin B. Competitive indirect ELISA (CI-ELISA) is preferred, and is conducted at a final antibody concentration (dilution from tissue culture supernatant) to give 50% of maximal binding to a hygromycin B coated substrate or assay well. In accordance with this embodiment, the antibody containing supernatant is added to a hygromycin B conjugate-coated solid substrate such as the wells of an assay plate, together with a range of concentrations of free hygromycin B as a competitor. Following incubation and washing, bound antibody in the wells is determined in the same manner as the indirect-ELISA. Percent inhibition may be calculated as (1-B/Bo)×100 where B is the optical density (OD) of a well with a competitor and Bo is the mean OD of the wells without competitor (control). […] However, for even greater accuracy, the affinity may be alternatively measured at 50% inhibition (IC50).
A competitive indirect ELISA (CI-ELISA) was used to determine the sensitivity and specificity of the monoclonal antibodies for binding hygromycin B. Microtiter plates were coated with HB-SMPB-S-BSA (400 ng/well) and blocked with 3% non-fat milk solution as described above. After washing five times with 0.05% Tween 20 in distilled water, 100 μL of hygromycin B standard in assay buffer (0.1M Tris, 0.15M NaCl, 0.05% Tween 20, 1% BSA, pH 7.5) and 100 μL antiserum (diluted 1:60 in assay buffer) were added to each well and incubated for 90 min at 37° C. Unbound antibody was removed by washing five times with the 0.05% Tween 20-water solution. Next, 50 μL of goat anti-mouse IgG-peroxidase conjugate (1:500 dilution) was added to each well. After a 60 min incubation at 37° C., the plates were washed ten times with 0.05% Tween 20, and bound antibody-peroxidase conjugate was determined using ABTS. Absorbance was read at 405 nm.
Each point represents the average of 6 replicates. […] The mean intraassay IC50 coefficient of variation (CV) was 7.8% (n=3), while a mean interassay IC50 coefficient of variation of 7.0% (n=3) was observed. […] HB-13 was also characterized as to its ability to recognize related aminoglycoside antibiotics, including spiramycin, gentamicin, kanamycin, amikacin and tylosin.

[2] = tested on: monoclonal antibodies to hygromycin B obtained with the short immunization protocol; assay: Competitive indirect ELISA (CI-ELISA); conditions: range over antibodies from short immunization protocol
Procedure: (§1) The supernatant culture fluid from the cloned hybridomas may also be screened to select for those producing antibodies having a high affinity for hygromycin B. Affinity may be measured using a variety of well known techniques, such as ELISA, RIA or equilibrium dialysis using labelled hygromycin B. Competitive indirect ELISA (CI-ELISA) is preferred, and is conducted at a final antibody concentration (dilution from tissue culture supernatant) to give 50% of maximal binding to a hygromycin B coated substrate or assay well. […]
In the short immunization schedule, female BALB/c mice (6-8 weeks of age) were injected intraperitoneally (ip) with 75 μg of HB-SMPB-S-OVA (in 0.2 mL physiological saline/RIBI adjuvant). […] One week after the second injection, the mice were bled and serum titers were determined. […]
(§2) A competitive indirect ELISA (CI-ELISA) was used to determine the sensitivity and specificity of the monoclonal antibodies for binding hygromycin B. Microtiter plates were coated with HB-SMPB-S-BSA (400 ng/well) and blocked with 3% non-fat milk solution as described above. […] After a 60 min incubation at 37° C., the plates were washed ten times with 0.05% Tween 20, and bound antibody-peroxidase conjugate was determined using ABTS. Absorbance was read at 405 nm. […]

[3] = tested on: monoclonal antibodies to hygromycin B obtained with the extended immunization protocol (including HB-3, HB-7, HB-13); assay: Competitive indirect ELISA (CI-ELISA); conditions: range over antibodies from extended immunization protocol
Procedure: as §1
In the extended immunization schedule, female BALB/c mice were immunized with 75 μg ip injections every two weeks for a total of three injections. On day 35, the mice were bled so that serum titers and antibody specificities could be determined. […]
as §2

| Molecule | cross-reactivity with the HB-13 antibody [1] | further results |
| --- | --- | --- |
| NCC[C@H](O)C(=O)N[C@@H]1C[C@H](N)[C@@H](O[C@H]2O[C@H](CN)[C@@H](O)[C@H](O)[C@H]2O)[C@H](O)[C@H]1O[C@H]1O[C@H](CO)[C@@H](O)[C@H](N)[C@H]1O [amikacin] | None of these compounds were observed to cross-react | – |
| CNC1CC(N)C(O)C(OC2OC(CO)C(O)C3OC4(OC(C(N)CO)C(O)C(O)C4O)OC23)C1O (stereo not drawn) [hygromycin B] | – | average IC50 ([1]; each point average of 6 replicates): 76.2 ng/well; average IC50 ([1]; same value expressed as ppm): 0.762 ppm; IC50 [2]: 10-100 ppm; IC50 [3]: 0.7-1 ppm |
| NC[C@H]1O[C@H](O[C@H]2[C@H](O)[C@@H](O[C@H]3O[C@H](CO)[C@@H](O)[C@H](N)[C@H]3O)[C@H](N)C[C@@H]2N)[C@H](O)[C@@H](O)[C@@H]1O [kanamycin] | None of these compounds were observed to cross-react | – |
| CC[C@H]1OC(=O)C[C@@H](O)[C@H](C)[C@@H](O[C@@H]2O[C@H](C)[C@@H](O[C@H]3C[C@@](C)(O)[C@@H](O)[C@H](C)O3)[C@H](N(C)C)[C@H]2O)[C@@H](CC=O)C[C@@H](C)C(=O)/C=C/C(C)=C/[C@@H]1CO[C@@H]1O[C@H](C)[C@@H](O)[C@@H](OC)[C@H]1OC [tylosin] | None of these compounds were observed to cross-react | – |
| gentamicin | None of these compounds were observed to cross-react | – |
| spiramycin | None of these compounds were observed to cross-react | – |
